Measurements published in paper PMC6450621, “Changes of drug pharmacokinetics mediated by downregulation of kidney organic cation transporters Mate1 and Oct2 in a rat model of hyperuricemia” (PLoS ONE, 2019).
“And” between values parts separate entries of the source, which are not always exact repeats. Equal entries are not always repeated.

What was measured:
in vivo = settings: rat, plasma, intravenous
[1] = metformin; used for control and hyperuricemic rats; cited from earlier work
[2] = Pharmacokinetic study after intravenous administration in control and hyperuricemic rats (plasma, urine, kidney); settings: for Kp, kidney: 4 h after iv metformin 30 mg/kg; for CL renal / concentration at 0 min / concentration at 0.5 min / concentration at 2 min / concentration at 5 min / concentration at 30 min / concentration at 60 min / AUC(0-t) / AUC(0-inf) / dose excreted at 10 min / dose excreted at 20 min / dose excreted at 30 min / dose excreted at 60 min / dose excreted at 120 min / dose excreted at 240 min / dose excreted: rat; for CL renal: plasma and urine, CLR; for CL renal / AUC(0-t) / AUC(0-inf): iv; for concentration at 0 min / concentration at 0.5 min / concentration at 2 min / concentration at 5 min / concentration at 30 min / concentration at 60 min / AUC(0-t) / AUC(0-inf): plasma; for concentration at 0 min / concentration at 0.5 min / concentration at 2 min / concentration at 5 min / concentration at 30 min / concentration at 60 min / dose excreted at 10 min / dose excreted at 20 min / dose excreted at 30 min / dose excreted at 60 min / dose excreted at 120 min / dose excreted at 240 min / dose excreted: intravenous; for concentration at 0 min / concentration at 0.5 min / concentration at 2 min / concentration at 5 min / concentration at 30 min / concentration at 60 min: Plasma concentration; for AUC(0-inf): AUCinf; for dose excreted at 10 min / dose excreted at 20 min / dose excreted at 30 min / dose excreted at 60 min / dose excreted at 120 min / dose excreted at 240 min / dose excreted: urine; for dose excreted at 10 min / dose excreted at 20 min / dose excreted at 30 min / dose excreted at 60 min / dose excreted at 120 min / dose excreted at 240 min: Urinary recovery (cumulative); for dose excreted: Urinary Recovery;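 as to all read-outs here: Pentobarbital-anesthetized rats with cannulated bladder, jugular plasma, timed urine and saline kidney homogenate assayed by HPLC or LC-MS/MS, Kp as kidney over plasma level at 4 h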
[3] = control rats, 0 min after iv metformin 30 mg/kg or cephalexin 10 mg/kg, individual rat
[4] = control rats, 0.5 min after iv metformin 30 mg/kg or cephalexin 10 mg/kg (creatinine endogenous), individual rat
[5] = control rats, 2 min after iv metformin 30 mg/kg or cephalexin 10 mg/kg, individual rat
[6] = control rats, 5 min after iv metformin 30 mg/kg or cephalexin 10 mg/kg, individual rat
[7] = control rats, 30 min after iv metformin 30 mg/kg or cephalexin 10 mg/kg (creatinine endogenous), individual rat
[8] = control rats, 60 min after iv metformin 30 mg/kg or cephalexin 10 mg/kg (creatinine endogenous), individual rat
[9] = control rats, iv metformin 30 mg/kg, individual rat
[10] = hyperuricemic rats, 0 min after iv metformin 30 mg/kg or cephalexin 10 mg/kg, individual rat
[11] = hyperuricemic rats, 0.5 min after iv metformin 30 mg/kg or cephalexin 10 mg/kg (creatinine endogenous), individual rat
[12] = hyperuricemic rats, 2 min after iv metformin 30 mg/kg or cephalexin 10 mg/kg, individual rat
[13] = hyperuricemic rats, 30 min after iv metformin 30 mg/kg or cephalexin 10 mg/kg (creatinine endogenous), individual rat
[14] = hyperuricemic rats, 60 min after iv metformin 30 mg/kg or cephalexin 10 mg/kg (creatinine endogenous), individual rat
[15] = hyperuricemic rats, iv metformin 30 mg/kg, individual rat
[16] = 30 mg/kg, control rats, iv metformin 30 mg/kg, individual rat
[17] = 30 mg/kg, hyperuricemic rats, iv metformin 30 mg/kg, individual rat
[18] = control rats, iv metformin 30 mg/kg or cephalexin 10 mg/kg, mean n=3
[19] = hyperuricemic rats, iv metformin 30 mg/kg or cephalexin 10 mg/kg, mean n=3

concentration at 15 min (in vivo): 67.3 µM
concentration at 120 min (in vivo): 3.94 µM
Plasma concentration [2, 3]: 750 µM and 1198 µM
Plasma concentration [2, 4]: 571 µM and 817 µM
Plasma concentration [2, 5]: 293 µM and 304 µM
Plasma concentration [2, 6]: 154 µM and 164 µM
Plasma concentration [2, 7]: 33.2 µM and 34.5 µM
Plasma concentration [2, 8]: 13.0 µM and 12.8 µM
Urinary recovery (cumulative) ([2]; control rats, 60 min after iv metformin 30 mg/kg, individual rat): 44.6 % of dose and 64.4 % of dose
Urinary recovery (cumulative) ([2]; control rats, 120 min after iv metformin 30 mg/kg, individual rat): 63.3 % of dose and 72.5 % of dose
Urinary recovery (cumulative) ([2]; control rats, 240 min after iv metformin 30 mg/kg, individual rat): 72.0 % of dose and 76.4 % of dose
Kp, kidney ([2]; control rats, individual rat): 2.8 and 35.8 and 11.4
AUC0-4 [2, 9]: 5208 µM·min and 5490 µM·min
AUCinf [2, 9]: 5393 µM·min and 5550 µM·min
CLR [2, 9]: 23.6 mL/min/kg and 23.7 mL/min/kg
Plasma concentration [2, 10]: 796 µM and 923 µM
Plasma concentration [2, 11]: 780 µM and 862 µM
Plasma concentration [2, 12]: 336 µM and 407 µM
Plasma concentration ([2]; hyperuricemic rats, 5 min after iv metformin 30 mg/kg or cephalexin 10 mg/kg, individual rat): 86 µM and 154 µM and 193 µM
Urinary recovery (cumulative) ([2]; hyperuricemic rats, 10 min after iv metformin 30 mg/kg, individual rat): 16.7 % of dose and 11.6 % of dose
Urinary recovery (cumulative) ([2]; hyperuricemic rats, 20 min after iv metformin 30 mg/kg, individual rat): 26.1 % of dose and 20.0 % of dose
Plasma concentration [2, 13]: 54.0 µM and 44.1 µM
Urinary recovery (cumulative) ([2]; hyperuricemic rats, 30 min after iv metformin 30 mg/kg, individual rat): 31.6 % of dose and 27.5 % of dose
Plasma concentration [2, 14]: 26.4 µM and 27.5 µM
Urinary recovery (cumulative) ([2]; hyperuricemic rats, 60 min after iv metformin 30 mg/kg, individual rat): 41.1 % of dose and 37.0 % of dose
Urinary recovery (cumulative) ([2]; hyperuricemic rats, 120 min after iv metformin 30 mg/kg, individual rat): 49.6 % of dose and 47.8 % of dose
Urinary recovery (cumulative) ([2]; hyperuricemic rats, 240 min after iv metformin 30 mg/kg, individual rat): 63.2 % of dose and 59.1 % of dose
Kp, kidney ([2]; hyperuricemic rats, individual rat): 94.7 and 122.2 and 54.1
AUC0-4 [2, 15]: 7033 µM·min and 4854 µM·min
AUCinf [2, 15]: 7159 µM·min and 4997 µM·min
CLR [2, 15]: 14.3 mL/min/kg and 23.7 mL/min/kg
(CLR/fu)/CLInulin Fold Change ([2]; hyperuricemic vs control rats): 1.00
AUC0-4 Fold Change ([2]; hyperuricemic vs control rats): 1.10
AUCinf Fold Change ([2]; hyperuricemic vs control rats): 1.10
CLR Fold Change ([2]; hyperuricemic vs control rats): 0.80
Kp, kidney Fold Change ([2]; hyperuricemic vs control rats): 5.44
Urinary Recovery Fold Change ([2]; hyperuricemic vs control rats): 0.85
CL renal [2, 16]: 21.7 mL/min/kg
CL renal [2, 17]: 16.8 mL/min/kg
CL renal ([2]; control rats, iv metformin 30 mg/kg or cephalexin 10 mg/kg, creatinine endogenous, mean n=3): 23 mL/min/kg
CL renal ([2]; hyperuricemic rats, iv metformin 30 mg/kg or cephalexin 10 mg/kg, creatinine endogenous, mean n=3): 18.3 mL/min/kg
concentration at 0 min [2, 3]: 1270 µM
concentration at 0 min ([2]; control rats, 0 min after iv metformin 30 mg/kg or cephalexin 10 mg/kg, mean n=3): 1070 µM
concentration at 0.5 min [2, 4]: 871 µM
concentration at 0.5 min ([2]; control rats, 0.5 min after iv metformin 30 mg/kg or cephalexin 10 mg/kg (creatinine endogenous), mean n=3): 753 µM
concentration at 2 min [2, 5]: 385 µM
concentration at 2 min ([2]; control rats, 2 min after iv metformin 30 mg/kg or cephalexin 10 mg/kg, mean n=3): 328 µM
concentration at 5 min [2, 6]: 159 µM
concentration at 5 min ([2]; control rats, 5 min after iv metformin 30 mg/kg or cephalexin 10 mg/kg, mean n=3): 159 µM
concentration at 30 min [2, 7]: 37 µM
concentration at 30 min ([2]; control rats, 30 min after iv metformin 30 mg/kg or cephalexin 10 mg/kg (creatinine endogenous), mean n=3): 34.9 µM
concentration at 60 min [2, 8]: 14.4 µM
concentration at 60 min ([2]; control rats, 60 min after iv metformin 30 mg/kg or cephalexin 10 mg/kg (creatinine endogenous), mean n=3): 13.4 µM
concentration at 0 min [2, 10]: 676 µM
concentration at 0 min ([2]; hyperuricemic rats, 0 min after iv metformin 30 mg/kg or cephalexin 10 mg/kg, mean n=3): 798 µM
concentration at 0.5 min [2, 11]: 578 µM
concentration at 0.5 min ([2]; hyperuricemic rats, 0.5 min after iv metformin 30 mg/kg or cephalexin 10 mg/kg (creatinine endogenous), mean n=3): 740 µM
concentration at 2 min [2, 12]: 267 µM
concentration at 2 min ([2]; hyperuricemic rats, 2 min after iv metformin 30 mg/kg or cephalexin 10 mg/kg, mean n=3): 337 µM
concentration at 5 min ([2]; hyperuricemic rats, 5 min after iv metformin 30 mg/kg or cephalexin 10 mg/kg, mean n=3): 144 µM
concentration at 30 min [2, 13]: 30 µM
concentration at 30 min ([2]; hyperuricemic rats, 30 min after iv metformin 30 mg/kg or cephalexin 10 mg/kg (creatinine endogenous), mean n=3): 42.7 µM
concentration at 60 min [2, 14]: 20.6 µM
concentration at 60 min ([2]; hyperuricemic rats, 60 min after iv metformin 30 mg/kg or cephalexin 10 mg/kg (creatinine endogenous), mean n=3): 24.9 µM
AUC(0-t) ([2]; 30 mg/kg, AUC0-4, control rats, iv metformin 30 mg/kg, individual rat): 98.2 µM·h
AUC(0-t) ([2]; 30 mg/kg, AUC0-4, hyperuricemic rats, iv metformin 30 mg/kg, individual rat): 107 µM·h
AUC(0-inf) [2, 16]: 99.5 µM·h
AUC(0-inf) [2, 17]: 109 µM·h
AUC(0-t) ([2]; AUC0-4, control rats, iv metformin 30 mg/kg or cephalexin 10 mg/kg, creatinine endogenous, mean n=3): 92.2 µM·h
AUC(0-t) ([2]; AUC0-4, hyperuricemic rats, iv metformin 30 mg/kg or cephalexin 10 mg/kg, creatinine endogenous, mean n=3): 102 µM·h
AUC(0-inf) [2, 18]: 94 µM·h
AUC(0-inf) [2, 19]: 104 µM·h
dose excreted at 10 min ([2]; 30 mg/kg, control rats, 10 min after iv metformin 30 mg/kg, mean n=3): 17.8%
dose excreted at 20 min ([2]; 30 mg/kg, control rats, 20 min after iv metformin 30 mg/kg, mean n=3): 31.3%
dose excreted at 30 min ([2]; 30 mg/kg, control rats, 30 min after iv metformin 30 mg/kg, mean n=3): 41.2%
dose excreted at 60 min ([2]; 30 mg/kg, control rats, 60 min after iv metformin 30 mg/kg, individual rat): 57.8%
dose excreted at 60 min ([2]; 30 mg/kg, control rats, 60 min after iv metformin 30 mg/kg, mean n=3): 55.6%
dose excreted at 120 min ([2]; 30 mg/kg, control rats, 120 min after iv metformin 30 mg/kg, individual rat): 61.5%
dose excreted at 120 min ([2]; 30 mg/kg, control rats, 120 min after iv metformin 30 mg/kg, mean n=3): 65.7%
dose excreted at 240 min ([2]; 30 mg/kg, control rats, 240 min after iv metformin 30 mg/kg, individual rat): 75.1%
dose excreted at 10 min ([2]; 30 mg/kg, hyperuricemic rats, 10 min after iv metformin 30 mg/kg, individual rat): 15.5%
dose excreted at 10 min ([2]; 30 mg/kg, hyperuricemic rats, 10 min after iv metformin 30 mg/kg, mean n=3): 14.6%
dose excreted at 20 min ([2]; 30 mg/kg, hyperuricemic rats, 20 min after iv metformin 30 mg/kg, individual rat): 26.9%
dose excreted at 20 min ([2]; 30 mg/kg, hyperuricemic rats, 20 min after iv metformin 30 mg/kg, mean n=3): 24.3%
dose excreted at 30 min ([2]; 30 mg/kg, hyperuricemic rats, 30 min after iv metformin 30 mg/kg, individual rat): 35.7%
dose excreted at 30 min ([2]; 30 mg/kg, hyperuricemic rats, 30 min after iv metformin 30 mg/kg, mean n=3): 31.6%
dose excreted at 60 min ([2]; 30 mg/kg, hyperuricemic rats, 60 min after iv metformin 30 mg/kg, individual rat): 46%
dose excreted at 60 min ([2]; 30 mg/kg, hyperuricemic rats, 60 min after iv metformin 30 mg/kg, mean n=3): 41.4%
dose excreted at 120 min ([2]; 30 mg/kg, hyperuricemic rats, 120 min after iv metformin 30 mg/kg, individual rat): 56.1%
dose excreted at 120 min ([2]; 30 mg/kg, hyperuricemic rats, 120 min after iv metformin 30 mg/kg, mean n=3): 51.1%
dose excreted at 240 min ([2]; 30 mg/kg, hyperuricemic rats, 240 min after iv metformin 30 mg/kg, individual rat): 67.5%
dose excreted at 240 min ([2]; 30 mg/kg, hyperuricemic rats, 240 min after iv metformin 30 mg/kg, mean n=3): 63.3%
dose excreted [2, 18]: 74.5%
dose excreted [2, 19]: 63.3%
Compound: CN(C)C(=N)N=C(N)N [Metformin, metformin]
fu [1]: 0.85 [27]
Urinary recovery (cumulative) ([2]; control rats, 20 min after iv metformin 30 mg/kg, individual rat): 26.0 % of dose and 21.2 % of dose and 46.7 % of dose
Urinary recovery (cumulative) ([2]; control rats, 30 min after iv metformin 30 mg/kg, individual rat): 43.9 % of dose and 27.9 % of dose and 51.8 % of dose
